Test results reported in patent publication US20020137929A1, “1 - (3-heterocyclylphenyl) isothiourea, -isourea, -guanidine and -amidine herbicidal agents” (Intellectual Property Department, BASF Aktiengesellschaft, priority 1998, published 2002).

Columns and labels:
[1] = test system: ECHCG (Barnyardgrass); test: Postemergence herbicidal evaluation; format: in vivo, Echinochloa crus-galli; conditions: for ECHCG herbicidal rating: postemergence
Summary of the method: (§1)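 First, seedlings were raised for around two weeks. Next, test material in 50/50 acetone/water containing 0.5% TWEEN 20 was sprayed through a nozzle at 40 psi, equivalent to about 0.0156–0.500 kg/ha. Finally, after 4–5 weeks in the greenhouse, plants were rated 0–9.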

[2] = test system: ECHORC (Watergrass (Calif.)); test: Preemergence weed control under flooded paddy conditions; format: in vivo, Echinochloa oryzoides; conditions: rated 3-4 weeks after treatment
Summary of the method: (§2)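 Herbicidal effect is scored visually on a 0-9 scale against an untreated control, three to four weeks after compounds are pipetted into the flood water (1.5 to 3 cm deep) over seeds planted in silt loam at 0.5 cm depth. Rates: about 0.0313 to 0.500 kg/ha.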

[3] = test system: SAGPY (Arrowhead (Pygmaea)); test: Postemergence weed control under flooded paddy conditions; format: in vivo, Sagittaria pygmaea; conditions: postemergence weeds
Summary of the method: (§3)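 Flood-water application, about 0.0313–0.500 kg/ha a.i. in aqueous/acetone 50/50 v/v; water depth 1.5–3 cm throughout. Weeds 3–5 cm, rice 1.5–2.5 leaf. Greenhouse; 0–9 visual rating vs control at 3–4 wk.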

[4] = test system: GALAP (Galium); test: Postemergence herbicidal evaluation; format: in vivo, Galium aparine; conditions: for GALAP herbicidal rating: postemergence
Summary of the method: as §1

[5] = test system: ZEAMX (Corn, Field); test: Preemergence herbicidal evaluation; format: in vivo, Zea mays; conditions: rated 4-5 weeks after treatment; for ZEAMX rating: preemergence, 0-9 scale
Summary of the method: (§4)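 Sown cups got a single aqueous acetone spray of test compound (roughly 0.0156–0.500 kg/ha) before seedlings emerged. Evaluation, 4–5 weeks on, used a 0–9 visual scale covering plant stand, vigor, size, malformation, chlorosis and general appearance compared with controls.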

[6] = test system: TRZAWR (Wheat, Winter, cv Riband); test: Preemergence herbicidal evaluation; format: in vivo, Triticum aestivum; conditions: rated 4-5 weeks after treatment; for TRZAWR rating: preemergence, 0-9 scale
Summary of the method: as §4

[7] = test system: IPOHE (Morningglory, Ivyleaf); test: Preemergence herbicidal evaluation; format: in vivo, Ipomoea hederacea; conditions: rated 4-5 weeks after treatment; for IPOHE rating: preemergence, 0-9 scale
Summary of the method: as §4

[8] = test system: ORYSAT (Rice, Tebonnet); test: Postemergence herbicidal evaluation; format: in vivo, Oryza sativa, (L.) Tebonnet; conditions: for ORYSAT herbicidal rating: postemergence
Summary of the method: as §1

[9] = test system: CYPIR (Rice Flatsedge); test: Preemergence weed control under flooded paddy conditions; format: in vivo, Cyperus iria; conditions: rated 3-4 weeks after treatment
Summary of the method: as §2

[10] = test system: ABUTH (Velvetleaf); test: Postemergence herbicidal evaluation; format: in vivo, Abutilon theophrasti; conditions: for ABUTH herbicidal rating: postemergence
Summary of the method: as §1

[11] = test system: CYPSE (Flatsedge); test: Postemergence weed control under flooded paddy conditions; format: in vivo, Cyperus serotinus; conditions: postemergence weeds
Summary of the method: as §3

[12] = test system: MOOVA (Monochoria); test: Preemergence weed control under flooded paddy conditions; format: in vivo, Monochoria vaginalis; conditions: rated 3-4 weeks after treatment
Summary of the method: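 Visual injury scored 0-9 against control three to four weeks post-treatment, greenhouse-grown. Application: acetone/water (50/50) solutions dosed directly into flood water (1.5-3 cm over silt loam, planted top 0.5 cm), roughly 0.0313 to 0.500 kg/ha active ingredient.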

[13] = test system: SETVI (Foxtail, Green); test: Postemergence herbicidal evaluation; format: in vivo, Setaria viridis; conditions: for SETVI herbicidal rating: postemergence
Summary of the method: as §1

[14] = test system: CYPIR (Rice Flatsedge); test: Postemergence weed control under flooded paddy conditions; format: in vivo, Cyperus iria; conditions: postemergence weeds
Summary of the method: as §3

[15] = Rate 0.0313 kg/ha, rated 3 to 4 weeks after treatment
[16] = Rate 0.0625 kg/ha, rated 3 to 4 weeks after treatment
[17] = Rate 0.1250 kg/ha, rated 3 to 4 weeks after treatment
[18] = Rate 0.2500 kg/ha, rated 3 to 4 weeks after treatment
[19] = rate 0.0313 kg/ha, 3-4 weeks after treatment
[20] = rate 0.0625 kg/ha, 3-4 weeks after treatment
[21] = rate 0.1250 kg/ha, 3-4 weeks after treatment
[22] = rate 0.2500 kg/ha, 3-4 weeks after treatment

CCOC(=O)CN1C(=O)C(CC(=O)NOC)SC1=Nc1cc(-n2c(=O)cc(C(F)(F)F)n(C)c2=O)c(F)cc1Cl (stereo not shown) [Compound 83, Ethyl 2-{{2-chloro-5-[3,6-dihydro-3-methyl-2,6-dioxo-4-(trifluoromethyl)-1(2H)-pyrimidinyl]-4-fluorophenyl}imino}-5-[(methoxycarbamoyl)methyl]-4-oxo-3-thiazolidineacetate]
ECHCG herbicidal rating ([1]; rate 0.0156 kg/ha): 0.0 | ECHCG herbicidal rating ([1]; rate 0.0313 kg/ha): 2.0 | ECHCG herbicidal rating ([1]; rate 0.0625 kg/ha): 4.0 | ECHCG herbicidal rating ([1]; rate 0.1250 kg/ha): 9.0 | ECHORC herbicidal effect rating ([2]; 0.0313 kg/ha): 5.0 | ECHORC herbicidal effect rating ([2]; 0.0625 kg/ha): 6.0 | ECHORC herbicidal effect rating ([2]; 0.1250 kg/ha): 7.0 | ECHORC herbicidal effect rating ([2]; 0.2500 kg/ha): 7.0 | Herbicidal rating SAGPY [3, 15]: 7.0 | Herbicidal rating SAGPY [3, 16]: 7.0 | Herbicidal rating SAGPY [3, 17]: 7.0 | Herbicidal rating SAGPY [3, 18]: 9.0 | GALAP herbicidal rating ([4]; rate 0.0156 kg/ha): 0.0 | GALAP herbicidal rating ([4]; rate 0.0313 kg/ha): 0.0 | GALAP herbicidal rating ([4]; rate 0.0625 kg/ha): 3.0 | GALAP herbicidal rating ([4]; rate 0.1250 kg/ha): 5.0 | ZEAMX rating ([5]; 0.0156 kg/ha): 0.0 | ZEAMX rating ([5]; 0.0313 kg/ha): 0.0 | ZEAMX rating ([5]; 0.0625 kg/ha): 0.0 | ZEAMX rating ([5]; 0.1250 kg/ha): 0.0 | ZEAMX rating ([5]; 0.2500 kg/ha): 0.0 | ZEAMX rating ([5]; 0.5000 kg/ha): 7.0 | TRZAWR rating ([6]; 0.0156 kg/ha): 0.0 | TRZAWR rating ([6]; 0.0313 kg/ha): 0.0 | TRZAWR rating ([6]; 0.0625 kg/ha): 0.0 | TRZAWR rating ([6]; 0.1250 kg/ha): 0.0 | TRZAWR rating ([6]; 0.2500 kg/ha): 0.0 | TRZAWR rating ([6]; 0.5000 kg/ha): 5.0 | IPOHE rating ([7]; 0.0156 kg/ha): 0.0 | IPOHE rating ([7]; 0.0313 kg/ha): 0.0 | IPOHE rating ([7]; 0.0625 kg/ha): 0.0 | IPOHE rating ([7]; 0.1250 kg/ha): 3.0 | IPOHE rating ([7]; 0.2500 kg/ha): 9.0 | IPOHE rating ([7]; 0.5000 kg/ha): 9.0 | ORYSAT herbicidal rating ([8]; rate 0.0156 kg/ha): 1.5 | ORYSAT herbicidal rating ([8]; rate 0.0313 kg/ha): 2.5 | ORYSAT herbicidal rating ([8]; rate 0.0625 kg/ha): 3.0 | ORYSAT herbicidal rating ([8]; rate 0.1250 kg/ha): 3.0 | CYPIR herbicidal effect rating ([9]; 0.0313 kg/ha): 5.0 | CYPIR herbicidal effect rating ([9]; 0.0625 kg/ha): 6.0 | CYPIR herbicidal effect rating ([9]; 0.1250 kg/ha): 6.0 | CYPIR herbicidal effect rating ([9]; 0.2500 kg/ha): 7.0 | ABUTH herbicidal rating ([10]; rate 0.0156 kg/ha): 9.0 | ABUTH herbicidal rating ([10]; rate 0.0313 kg/ha): 9.0 | ABUTH herbicidal rating ([10]; rate 0.0625 kg/ha): 9.0 | ABUTH herbicidal rating ([10]; rate 0.1250 kg/ha): 9.0 | Herbicidal rating CYPSE [11, 15]: 0.0 | Herbicidal rating CYPSE [11, 17]: 3.0 | Herbicidal rating CYPSE [11, 18]: 5.0 | MOOVA herbicidal effect rating ([12]; 0.0313 kg/ha): 9.0 | MOOVA herbicidal effect rating ([12]; 0.0625 kg/ha): 9.0 | MOOVA herbicidal effect rating ([12]; 0.1250 kg/ha): 9.0 | MOOVA herbicidal effect rating ([12]; 0.2500 kg/ha): 9.0 | SETVI herbicidal rating ([13]; rate 0.0156 kg/ha): 0.0 | SETVI herbicidal rating ([13]; rate 0.0313 kg/ha): 2.0 | SETVI herbicidal rating ([13]; rate 0.0625 kg/ha): 8.0 | SETVI herbicidal rating ([13]; rate 0.1250 kg/ha): 8.0 | Herbicidal rating CYPIR [14, 15]: 5.0 | Herbicidal rating CYPIR [14, 16]: 6.0 | Herbicidal rating CYPIR [14, 17]: 6.0 | Herbicidal rating CYPIR [14, 18]: 7.0

Cn1c(C(F)(F)F)cc(=O)n(-c2cc(N=C3NC(=O)CS3)c(Cl)cc2F)c1=O [Compound 39, 3-{4-Chloro-2-fluoro-5-[(4-oxo-2-thiazolidinylidene)amino]phenyl}-1-methyl-6-(trifluoromethyl)-2,4(1H,3H)-pyrimidinedione]
Postemergence herbicidal rating ECHCG ([1]; Rate 0.0158 kg/ha): 0.0 | Postemergence herbicidal rating ECHCG ([1]; Rate 0.0315 kg/ha): 0.0 | Postemergence herbicidal rating ECHCG ([1]; Rate 0.0630 kg/ha): 0.0 | Herbicidal rating ECHORC ([2]; 0.0313 kg/ha): 0.0 | Herbicidal rating ECHORC ([2]; 0.0625 kg/ha): 0.0 | Herbicidal rating ECHORC ([2]; 0.1250 kg/ha): 2.0 | Herbicidal rating ECHORC ([2]; 0.2500 kg/ha): 3.0 | Herbicidal rating SAGPY [3, 19]: 0.0 | Herbicidal rating SAGPY [3, 20]: 0.0 | Herbicidal rating SAGPY [3, 21]: 0.0 | Herbicidal rating SAGPY [3, 22]: 4.0 | Postemergence herbicidal rating GALAP ([4]; Rate 0.0158 kg/ha): 0.0 | Postemergence herbicidal rating GALAP ([4]; Rate 0.0315 kg/ha): 0.0 | Postemergence herbicidal rating GALAP ([4]; Rate 0.0630 kg/ha): 0.0 | Preemergence herbicidal rating ZEAMX ([5]; rate 0.0156 kg/ha): 0.0 | Preemergence herbicidal rating ZEAMX ([5]; rate 0.0313 kg/ha): 0.0 | Preemergence herbicidal rating ZEAMX ([5]; rate 0.0625 kg/ha): 0.0 | Preemergence herbicidal rating ZEAMX ([5]; rate 0.1250 kg/ha): 2.0 | Preemergence herbicidal rating ZEAMX ([5]; rate 0.2500 kg/ha): 5.0 | Preemergence herbicidal rating TRZAWR ([6]; rate 0.0156 kg/ha): 0.0 | Preemergence herbicidal rating TRZAWR ([6]; rate 0.0313 kg/ha): 0.0 | Preemergence herbicidal rating TRZAWR ([6]; rate 0.0625 kg/ha): 0.0 | Preemergence herbicidal rating TRZAWR ([6]; rate 0.1250 kg/ha): 1.0 | Preemergence herbicidal rating TRZAWR ([6]; rate 0.2500 kg/ha): 2.0 | Preemergence herbicidal rating IPOHE ([7]; rate 0.0156 kg/ha): 0.0 | Preemergence herbicidal rating IPOHE ([7]; rate 0.0313 kg/ha): 0.0 | Preemergence herbicidal rating IPOHE ([7]; rate 0.0625 kg/ha): 1.0 | Preemergence herbicidal rating IPOHE ([7]; rate 0.1250 kg/ha): 1.0 | Preemergence herbicidal rating IPOHE ([7]; rate 0.2500 kg/ha): 9.0 | Postemergence herbicidal rating ORYSAT ([8]; Rate 0.0158 kg/ha): 1.5 | Postemergence herbicidal rating ORYSAT ([8]; Rate 0.0315 kg/ha): 1.5 | Postemergence herbicidal rating ORYSAT ([8]; Rate 0.0630 kg/ha): 2.0 | Herbicidal rating CYPIR ([9]; 0.0313 kg/ha): 0.0 | Herbicidal rating CYPIR ([9]; 0.0625 kg/ha): 0.0 | Herbicidal rating CYPIR ([9]; 0.1250 kg/ha): 0.0 | Herbicidal rating CYPIR ([9]; 0.2500 kg/ha): 0.0 | Postemergence herbicidal rating ABUTH ([10]; Rate 0.0158 kg/ha): 0.0 | Postemergence herbicidal rating ABUTH ([10]; Rate 0.0315 kg/ha): 9.0 | Postemergence herbicidal rating ABUTH ([10]; Rate 0.0630 kg/ha): 9.0 | Herbicidal rating CYPSE [11, 19]: 0.0 | Herbicidal rating CYPSE [11, 20]: 0.0 | Herbicidal rating CYPSE [11, 21]: 0.0 | Herbicidal rating CYPSE [11, 22]: 0.0 | Herbicidal rating MOOVA ([12]; 0.0313 kg/ha): 9.0 | Herbicidal rating MOOVA ([12]; 0.0625 kg/ha): 9.0 | Herbicidal rating MOOVA ([12]; 0.1250 kg/ha): 9.0 | Herbicidal rating MOOVA ([12]; 0.2500 kg/ha): 9.0 | Postemergence herbicidal rating SETVI ([13]; Rate 0.0158 kg/ha): 0.0 | Postemergence herbicidal rating SETVI ([13]; Rate 0.0315 kg/ha): 0.0 | Postemergence herbicidal rating SETVI ([13]; Rate 0.0630 kg/ha): 0.0 | Herbicidal rating CYPIR [14, 19]: 0.0 | Herbicidal rating CYPIR [14, 20]: 0.0 | Herbicidal rating CYPIR [14, 21]: 0.0 | Herbicidal rating CYPIR [14, 22]: 0.0
